# Test results reported in patent publication US11555014B2, “High penetration prodrug compositions of prostaglandins and related compounds” (Techfields Pharma Co., Ltd., priority 2006, dated 2023).
# Key:
# [1] = In vitro penetration rate across isolated human skin in modified Franz cells; conditions: for In vitro penetration rate (apparent flux), parent compounds: 10% suspension in pH 7.4 phosphate buffer (0.2 M), n=5, lowest detectable flux 1 μg/cm^2/h; for In vitro penetration rate (apparent flux), prodrug compounds: 10% solution in pH 7.4 phosphate buffer (0.2 M), n=5
# Experimental: The penetration rates of HPPs and their parent drugs through human skin were measured in vitro by modified Franz cells. The Franz cells have two chambers, the top sample chamber and the bottom receiving chamber. The human skin tissue (360-400 μm thick) that separates the top and the receiving chambers was isolated from the anterior or posterior thigh areas.
# The compound tested (2 mL, 20% in 0.2 M phosphate buffer, pH. 7.4) were added to the sample chamber of a Franz cell. The receiving chamber contains 10 ml of 2% bovine serum albumin in saline which was stirred at 600 rpm. The cumulative amounts of the tested compounds penetrating the skin versus time were determined by high-performance liquid chromatography (HPLC) method.
# [2] = test system: cat eye; assay: Irritative effect or ocular discomfort in the cat eye after topical application; assay type: in vivo; conditions: first 2 hours, scale 0 (no discomfort) to 4 (maximal irritation, complete lid closure)
# Experimental: Irritative effect or ocular discomfort in the cat eye of naturally occurring and modified prostaglandins and their novel prodrugs were evaluated during the first hours after the topical application of the respective test drug. The ocular discomfort was graded on a scale from 0 to 4, 0 indicating complete absence of any signs of discomfort, and 4 indicating maximal irritation as obvious from complete lid closure.
# [3] = test system: rabbit eye; assay: Conjunctival hyperemia in the rabbit eye after topical application; assay type: in vivo; conditions: first 2 hours, scale 0 (no hyperemia) to 4 (marked hyperemia with conjunctive chemosis)
# Experimental: Conjunctival hyperemia in the rabbit eye of naturally occurring and modified prostaglandins and their novel prodrugs was evaluated during the first 2 hours after topical application of the respective test drug. The conjunctival hyperemia was graded on a scale from 0 to 4, 0 indicating complete absence of any hyperemia, and 4 indicating marked hyperemia with conjunctive chemosis.
# [4] = test system: cats with ocular hypertension; assay: Intraocular pressure (IOP) reduction in cats with ocular hypertension produced by laser trabeculoplasty; assay type: in vivo, cat
# Experimental: The ability of certain compounds of the present invention to reduce intraocular pressure (IOP) was evaluated in cats with ocular hypertension produced by previously done laser trabeculoplastry. IOP was determined with a pneumatonometer after light corneal anesthesia with dilute proparacaine. Baseline IOP was determined prior to treatment with the test compound aqueous solution. 6 divided doses were administered over a period of 3 days (once every 12 hours). IOP was determined 24 hours after the initial dose and then once every 12 hours. The therapeutically efficient amount is typically between 0.001 and 0.01% in pH 7.2 phosphate buffer (0.1 M). The treatment was carried out in that one drop (about 30 micro liter) of the composition. The results of N,N-diethylaminoethyl 11,15-dihydroxy-9-oxoprost-13-en-1-oate.AcOH (A), N,N-diethylaminoethyl 11,15-dihydroxyl-9-oxoprosta-5,13-dien-1-oate.AcOH (B), N,N-diethylaminoethyl 9,11,15-trihydroxyprosta-5,13-dien-1-oate.AcOH(C), N,N-diethylaminoethyl 9,11-dihydroxy-15-keto-20-ethylprost-5,13-dien-1-oate.AcOH (9,11-dihydroxy-15-keto-20-ethylprostaglandin F2α N,N-diethylaminoethyl ester) (D), N,N-diethylaminoethyl (Z)-7-{(1R,2R,3R,5S)-3,5-dihydroxy-2-[(1E,3R)-3-hydroxy-4-[(α,α,α-trifluoro-m-tolyl)oxy]-1-butenyl]cyclopentyl}-5-heptenoate.AcOH (E), N,N-diethylaminoethyl (Z)-7{(1R,2R,3R,5S)-3,5-dihydroxy-2-[(3R)-3-hydroxy-5-phenylpentyl]cyclopentyl}-5-heptenoate.AcOH (F), and N,N-diethylaminoethyl (Z)-7-{(1R,2R,3R,5S)-3,5-Dihydroxy-2-[(1E,3S)-3-hydroxy-5-phenyl-1-pentenyl]cyclopentyl}-heptenoate.AcOH (G) are shown in Table 2.
# [5] = dose 0.01%, one drop topical every 12 hours, 6 doses
"In vitro penetration rate (apparent flux), parent compounds [1] [mg/cm^2/h]","In vitro penetration rate (apparent flux), prodrug compounds [1] [mg/cm^2/h]",Compound,also measured
0.001,–,"CCCCC(C)(O)C/C=C/[C@H]1[C@H](O)CC(=O)[C@@H]1CCCCCCC(=O)OC (mixture of isomers) [Misoprostol, reference compound]",–
0.001,–,"O=C(O)CCC/C=C\C[C@@H]1[C@@H](/C=C/[C@@H](O)COc2cccc(C(F)(F)F)c2)[C@H](O)C[C@@H]1O (racemic) [Fluprostenol, reference compound]",–
0.001,–,"CCNC(=O)CCC/C=C\C[C@@H]1[C@@H](/C=C/[C@@H](O)CCc2ccccc2)[C@H](O)C[C@@H]1O [Bimatoprost, reference compound]",Degree of irritative effect ([2]; dose 0.001% topical): 2.5; Degree of irritative effect (conjunctival hyperemia) ([3]; dose 0.001% topical): 2.5
0.001,–,"CCCCC[C@](C)(O)/C=C/[C@@H]1[C@@H](C/C=C\CCCC(=O)O)[C@@H](O)C[C@H]1O [Carboprost, reference compound]",–
0.001,–,"O=C(O)CCC/C=C\CC1C(O)CC(O)C1/C=C/C(O)COc1cccc(Cl)c1 (centres unmarked) [Cloprostenol, reference compound]",–
0.001,–,"CCCCC(C)(C)[C@H](O)/C=C/[C@H]1[C@H](O)CC(=O)[C@@H]1CCCC/C=C/C(=O)OC [Gemeprost, reference compound]",–
0.001,–,"CC(C)OC(=O)CCC/C=C\C[C@@H]1[C@@H](CC[C@@H](O)CCc2ccccc2)[C@H](O)C[C@@H]1O [Latanoprost, 13,14-dihydro-17-phenyl-18,19,20-trinor PGF2α isopropyl ester, reference compound]",Degree of irritative effect ([2]; dose 0.001% topical): 2.5
–,1.11,"CC(=O)O.CCCCCC(O)C=C[C@H]1C(O)CC2OC(=CCCCC(=O)OCCN(CC)CC)C[C@@H]21 (some centres unmarked) [N,N-diethylaminoethyl 6,9-epoxy-11,15-dihydroxyprosta-5,13-dien-1-oate•AcOH]",–
–,0.81,"CC(=O)O.CCN(CC)CCOC(=O)CCC=C=CCC1C(O)CC(O)C1C=CC(O)COc1ccccc1 (centres unmarked) [N,N-diethylaminoethyl 7-[3,5-dihydroxy-2-(3-hydroxy-4-phenoxy-1-butenyl)cyclopentyl]-4,5-heptadien-1-oate•AcOH]",–
–,1.01,"CC(=O)O.CCN(CC)CCOC(=O)CCCC=CCC1C(=O)CC(O)C1C=CC(O)COc1ccccc1 (centres unmarked) [N,N-diethylaminoethyl 7-[3-hydroxy-2-(3-hydroxy-4-phenoxy-1-butenyl)-5-oxocyclopentyl]-5-heptenoate•AcOH]",–
–,0.92,"CC(=O)O.CCN(CC)CCOC(=O)CCCC=CCC1C(O)CC(O)C1C=CC(O)COc1cccc(Cl)c1 (centres unmarked) [N,N-diethylaminoethyl 7-{2-[4-(3-chlorophenoxy)-3-hydroxy-1-butenyl]-3,5-dihydroxycyclopentyl}-5-heptenoate•AcOH]",–
–,0.86,"CC(=O)O.CCN(CC)CCOC(=O)CCCC=CCC1C(O)CC(O)C1C=CC(O)COc1cccc(C(F)(F)F)c1 (centres unmarked) [N,N-diethylaminoethyl 7-{3,5-dihydroxy-2-[3-hydroxy-4-(3-trifluoromethylphenoxy)-1-butenyl]cyclopentyl}-5-heptenoate•AcOH]",–
–,0.90,"CC(=O)O.CCCCCC(C)(O)C=C[C@H]1C(O)CC(O)[C@@H]1CC=C=CCCC(=O)OCCN(CC)CC (some centres unmarked) [N,N-diethylaminoethyl 9,11,15-trihydroxy-15-methylprosta-4,5,13-trien-1-oate•AcOH]",–
–,0.85,"CC(=O)O.CCCCCC(O)C=C[C@H]1C(O)CC(O)[C@@H]1CCCCCCC(=O)OCCN(CC)CC (some centres unmarked) [N,N-diethylaminoethyl 9,11,15-trihydroxyprost-13-en-1-oate•AcOH]",–
–,1.05,"CC(=O)O.CCCCCCCC(=O)C=C[C@H]1C(O)CC(O)[C@@H]1CC=CCCCC(=O)OCCN(CC)CC (some centres unmarked) [N,N-diethylaminoethyl 9,11-dihydroxy-15-keto-20-ethylprost-5,13-dien-1-oate.AcOH]","Intraocular pressure, 24 hours after administration [4, 5]: 16.5 ± 0.6; Intraocular pressure, 36 hours after administration [4, 5]: 16.7 ± 0.4; Intraocular pressure, 48 hours after administration [4, 5]: 16.8 ± 0.6; Intraocular pressure, 60 hours after administration [4, 5]: 17.1 ± 0.5; Intraocular pressure, 72 hours after administration [4, 5]: 16.8 ± 0.5; Intraocular pressure, baseline ([4]; prior to treatment, group dosed 0.01%): 22.0 ± 0.6; Degree of irritative effect ([2]; dose 0.01% topical): 1; Degree of irritative effect (conjunctival hyperemia) ([3]; dose 0.01% topical): 1"
–,1.10,"CC(=O)O.CCCCCC(O)C=C[C@H]1C(O)CC(=O)[C@@H]1CC=CCCCC(=O)OCCN(CC)CC (some centres unmarked) [N,N-diethylaminoethyl 11,15-dihydroxy-9-oxoprosta-5,13-dien-1-oate.AcOH]",–
–,0.88,"CC(=O)O.CCCCC(C)(C)C(O)C=C[C@H]1C(O)CC(=O)[C@@H]1CCCCC=CC(=O)OCCN(CC)CC (some centres unmarked) [N,N-diethylaminoethyl 11,15-dihydroxy-16,16-dimethyl-9-oxoprosta-2,13-dien-1-oate•AcOH]",–
–,1.09,"CC(=O)O.CCCCC(C)(O)CC=C[C@H]1C(O)CC(=O)[C@@H]1CCCCCCC(=O)OCCN(CC)CC (some centres unmarked) [N,N-diethylaminoethyl 11,16-dihydroxy-9-oxo-16-methylprost-13-en-1-oate•AcOH]",–
–,–,"CCCCC[C@H](O)/C=C/[C@H]1[C@H](O)CC(=O)[C@@H]1CCCCCCC(=O)O [PGE1, reference compound]",Degree of irritative effect ([2]; dose 0.001% topical): 4; Degree of irritative effect (conjunctival hyperemia) ([3]; dose 0.001% topical): 4
0.001,–,"CCCCC[C@H](O)/C=C/[C@@H]1[C@@H](CCCCCCC(=O)O)[C@@H](O)C[C@H]1O [PGE1α, reference compound]",–
0.001,–,"CCCCC[C@H](O)/C=C/[C@H]1[C@H](O)CC(=O)[C@@H]1C/C=C\CCCC(=O)O [PGE2, reference compound]",Degree of irritative effect ([2]; dose 0.001% topical): 3.5; Degree of irritative effect (conjunctival hyperemia) ([3]; dose 0.001% topical): 4
–,–,"CCCCC[C@H](O)/C=C/[C@@H]1[C@@H](C/C=C\CCCC(=O)O)[C@@H](O)C[C@H]1O [PGF2α, reference compound]",Degree of irritative effect ([2]; dose 0.001% topical): 3.5; Degree of irritative effect (conjunctival hyperemia) ([3]; dose 0.001% topical): 4
0.001,–,"CCCCC[C@H](O)/C=C/[C@@H]1[C@H]2C/C(=C/CCCC(=O)O)O[C@H]2C[C@H]1O [PGI2, prostacyclin, reference compound]",–
0.001,–,"CCCCCC(C)(O)/C=C/[C@@H]1[C@@H](CC=C=CCCC(=O)OC)[C@@H](O)C[C@H]1O (some centres unmarked) [Prostalene, reference compound]",–
0.001,–,"CS(=O)(=O)NC(=O)CCC/C=C\C[C@H]1C(=O)C[C@@H](O)[C@@H]1/C=C/[C@@H](O)COc1ccccc1 [Sulprostone, reference compound]",–
0.001,–,"CCCCCCCC(=O)CC[C@@H]1[C@@H](C/C=C\CCCC(=O)O)[C@@H](O)C[C@H]1O [Unoprostone, 13,14-dihydro-15-keto-20-ethyl Prostaglandin F2α, reference compound]",Degree of irritative effect ([2]; dose 0.01% topical): 2.5; Degree of irritative effect (conjunctival hyperemia) ([3]; dose 0.01% topical): 2.5
0.001,–,"COC(=O)CCC=C=CCC1C(O)CC(O)C1/C=C/C(O)COc1ccccc1 (centres unmarked) [fenprostalene, reference compound]",–
